According to US10703756B2, “Pyrrolo[2,3-D]pyrimidinyl, pyrrolo[2,3-B]pyrazinyl, pyrrolo[2,3-B]pyridinyl acrylamides and epoxides thereof” (Pfizer Inc., priority 2015, dated 2020):
Read-outs that look alike come from different tables or passages of the source.

How the values were obtained:
JAK3 enzyme [1] = target: T1, JAK3 enzyme (Homo sapiens, UniProt P52333); test: JAK Caliper Enzyme Assay at 4 μM ATP; type: biochemical
T1 sequence (P52333 1-1124): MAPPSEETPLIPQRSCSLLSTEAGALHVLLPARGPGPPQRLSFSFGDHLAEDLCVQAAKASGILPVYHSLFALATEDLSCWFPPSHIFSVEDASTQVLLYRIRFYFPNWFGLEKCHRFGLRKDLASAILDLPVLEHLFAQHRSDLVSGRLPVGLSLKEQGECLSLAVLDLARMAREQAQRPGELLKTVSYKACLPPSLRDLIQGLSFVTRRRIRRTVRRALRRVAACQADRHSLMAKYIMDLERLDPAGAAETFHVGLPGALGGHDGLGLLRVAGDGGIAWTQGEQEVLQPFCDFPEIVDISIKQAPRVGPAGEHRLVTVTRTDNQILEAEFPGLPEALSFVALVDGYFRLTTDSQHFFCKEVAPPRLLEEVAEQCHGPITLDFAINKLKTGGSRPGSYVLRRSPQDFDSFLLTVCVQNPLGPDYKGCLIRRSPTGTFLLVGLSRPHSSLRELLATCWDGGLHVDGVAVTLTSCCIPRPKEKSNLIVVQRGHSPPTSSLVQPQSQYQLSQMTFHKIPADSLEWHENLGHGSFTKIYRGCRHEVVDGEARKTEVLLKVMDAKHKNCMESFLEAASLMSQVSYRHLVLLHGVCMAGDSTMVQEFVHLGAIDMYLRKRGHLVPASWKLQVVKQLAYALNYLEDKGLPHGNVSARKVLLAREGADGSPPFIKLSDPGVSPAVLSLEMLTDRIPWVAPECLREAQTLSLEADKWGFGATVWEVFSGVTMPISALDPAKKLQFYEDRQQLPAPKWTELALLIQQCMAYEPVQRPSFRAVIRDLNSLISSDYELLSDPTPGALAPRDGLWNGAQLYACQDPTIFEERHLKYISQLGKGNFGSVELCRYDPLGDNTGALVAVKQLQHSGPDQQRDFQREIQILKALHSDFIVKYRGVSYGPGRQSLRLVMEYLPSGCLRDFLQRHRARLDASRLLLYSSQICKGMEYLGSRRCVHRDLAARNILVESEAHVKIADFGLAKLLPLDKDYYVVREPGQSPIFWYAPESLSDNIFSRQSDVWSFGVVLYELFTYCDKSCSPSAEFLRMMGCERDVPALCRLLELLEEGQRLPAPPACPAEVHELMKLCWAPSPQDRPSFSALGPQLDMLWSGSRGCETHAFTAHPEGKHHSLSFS
Outline: (§1)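 Test compounds were diluted in DMSO as an 11-point half-log series from a 600 μM top concentration (DMSO series, not final assay level). Enzyme amount and incubation time were set per enzyme prep to reach 20%-30% phosphorylation. Phosphorylated and unphosphorylated peptide were resolved by microfluidic separation.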

JAK3 enzyme [2] = target: T1, JAK3 enzyme; test: JAK Caliper Enzyme Assay at 1 mM ATP; type: biochemical
Outline: as §1

[3] = Stability of JAK3 Covalent Inhibitors in Human Whole Blood; type: in vitro ADME; conditions: 1 μM test compound, 37° C., 180 min incubation; for half-life at 1 μM: both sexes, read-out: Human blood stability t1/2
Protocol: Stability of JAK3 Covalent Inhibitors in Rat and Human Whole Blood
Rat blood was collected from 3 male Sprague-Dawley rats (200-250 g, Charles River Laboratories) and pooled for each study. Human blood was collected from healthy subjects at the Occupational Health & Wellness Center at Pfizer, Groton, Conn. and pooled for each study. Both rat and human blood was collected freshly into K2-EDTA tubes and kept on ice. An aliquot of the blood was transferred to microtubes and pre-warmed for 10 min at 37° C. using a heat block. The test compound was then added (1 μM final concentration) and the incubation was continued for 180 min at 37° C. in duplicates. An aliquot of the incubation mixture was removed at designated time points during the course of the incubation, mixed with an aliquot of acetonitrile containing an internal standard, vortexed and centrifuged. The resulting supernatants were removed and subjected to LC-MS/MS analyses to determine parent compound concentrations. Peak area ratios of the parent compound vs the internal standard were used to determine the % of parent compound remaining vs incubation time.

[4] = system: IL-15 induced P-STAT5 in human PBMC; test: PBMC IL-15 Induced P-STAT5; type: cell-based
Outline: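 Thawed human PBMC, rested in human plasma, were preincubated 15 min at 37 °C with compound (0.2% DMSO), then stimulated 15 min with IL-15 at 41 ng/mL final. After paraformaldehyde fixation and methanol permeabilisation, Alexa Fluor 647 anti-STAT5 staining overnight at 4 °C was analysed by flow cytometry on total lymphocytes.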

[5] = Homo sapiens, PBMC, read-out: PBMC IL15_pSTAT5_IC50 (nM)
[6] = human PBMC, IL-15 final 41 ng/mL, read-out: PBMC IL15_pSTAT5_IC50

Compound	IC50 (JAK3 enzyme [1]) [µM]	IC50 (JAK3 enzyme [2]) [µM]	half-life at 1 μM [3] [h]	IC50 [4, 5] [nM]	IC50 [4, 6] [nM]	Human blood stability t1/2 [3] [h]
C=CC(=O)N1CC[C@H](Nc2cnc3[nH]cc(C(=O)N[C@@H](C)COC)c3n2)C[C@@H]1C (relative stereo) [Example 55, 2-{[(2S,4S)-1-acryloyl-2-methylpiperidin-4-yl]amino}-N-[(2S)-1-methoxypropan-2-yl]-5H-pyrrolo[2,3-b]pyrazine-7-carboxamide]	0.00221	0.192	> 6	2260	–	–
C=CC(=O)N1CCC[C@H]1COc1cnc2[nH]cc(C(=O)N[C@@H](C)COC)c2n1 (single isomer, unassigned) [Example 8]	0.000355	0.046	> 6	–	133	–
C=CC(=O)N1CC[C@@H](CNc2cnc3[nH]cc(C(=O)N[C@@H](C)COC)c3n2)C1 (single isomer, unassigned) [Example 17]	0.000319	0.037	3.16	–	2560	–
C=CC(=O)N1CC[C@H](CNc2cnc3[nH]cc(C(=O)N[C@@H](C)COC)c3n2)C1 (single isomer, unassigned) [Example 18]	0.000491	0.096	> 6	–	5990	–
C=CC(=O)N1CC[C@H](Nc2cnc3[nH]cc(C(=O)NCC)c3n2)[C@@H](OC)C1 (single isomer, unassigned) [Example 27]	0.000468	0.019	> 6	–	382	–
C=CC(=O)N1CC[C@H](Nc2cnc3[nH]cc(C(=O)NCC)c3n2)[C@@H](O)C1 (single isomer, unassigned) [Example 32]	0.000848	0.138	> 6	–	9100	–
C=CC(=O)N1CC[C@@H](Nc2cnc3[nH]cc(C(=O)NCC)c3n2)[C@H](O)C1 (single isomer, unassigned) [Example 33]	0.00023	0.034	3.47	–	2810	–
C=CC(=O)N1CC[C@H](Nc2cnc3[nH]cc(C(=O)NCC)c3n2)[C@H](C)C1 (single isomer, unassigned) [Example 39]	0.00101	0.202	> 6	–	2380	–
C=CC(=O)N1CC[C@H](Nc2cnc3[nH]cc(C(=O)NCC)c3n2)[C@@H](C)C1 (single isomer, unassigned) [Example 45]	0.00039	0.057	3.37	–	460	–
C=CC(=O)N1CC[C@H](Nc2cnc3[nH]cc(C(=O)N[C@H](C)COC)c3n2)C[C@@H]1C (single isomer, unassigned) [Example 57]	0.00445	0.241	> 6	3220	–	–
C=CC(=O)N1CC[C@@H](Nc2cnc3[nH]cc(C(=O)N[C@H](C)COC)c3n2)C[C@H]1C (single isomer, unassigned) [Example 58]	0.00277	0.282	> 6	4740	–	–
C=CC(=O)N1C[C@@H](Nc2cnc3[nH]cc(C(=O)N[C@@H](C)COC)c3n2)CC[C@H]1C (single isomer, unassigned) [Example 67]	0.000511	0.025	> 6	–	439	–
C=CC(=O)N1C[C@H](Nc2cnc3[nH]cc(C(=O)N[C@H](C)COC)c3n2)CC[C@@H]1C (single isomer, unassigned) [Example 69]	0.000782	0.137	> 6	–	2610	–
C=CC(=O)N1CC[C@H](Oc2cnc3[nH]cc(C(=O)N[C@@H](C)COC)c3n2)C[C@H]1C (single isomer, unassigned) [Example 72]	0.00113	0.08	2.77	–	415	–
C=CC(=O)N1C[C@@H](Nc2cnc3[nH]cc(C(=O)NCC)c3n2)CC[C@H]1C (single isomer, unassigned) [Example 75]	0.0016	0.316	> 6	–	2280	–
C=CC(=O)N1CC(Nc2cnc3[nH]cc(C(=O)NCC)c3n2)CCC1C (single isomer, unassigned) [Example 76]	0.000566	0.136	> 6	–	1150	–
C=CC(=O)N1CC[C@H](Oc2cnc3[nH]cc(C(=O)NCC)c3n2)C[C@H]1C (single isomer, unassigned) [Example 78]	0.00183	0.314	> 6	–	935	–
C=CC(=O)N1C[C@@H](CO)C[C@@H](Nc2ncnc3[nH]ccc23)C1 (single isomer, unassigned) [Example 98]	0.00126	0.152	1.76	–	932	–
C=CC(=O)N1C[C@@H](COCCC#N)C[C@@H](Nc2ncnc3[nH]ccc23)C1 (single isomer, unassigned) [Example 100]	0.0763	2.66	–	–	> 10000	3.52
C=CC(=O)N1C[C@@H](Nc2ncnc3[nH]ccc23)CC[C@@H]1[C@@H](C)O (single isomer, unassigned) [Example 111]	0.000858	0.077	2.87	–	537	–
C=CC(=O)N1CC[C@@H](Nc2cnc3[nH]cc(C(=O)NCC)c3n2)C1 (single isomer, unassigned) [Example 243]	0.000586	0.141	> 6	–	1730	–
C=CC(=O)N1CC[C@@H](Nc2cnc3[nH]cc(C(=O)N[C@@H](C)COC)c3n2)C[C@H]1C (stereo in doubt) [Example 56, 2-{[(2R,4R)-1-acryloyl-2-methylpiperidin-4-yl]amino}-N-[(2S)-1-methoxypropan-2-yl]-5H-pyrrolo[2,3-b]pyrazine-7-carboxamide]	0.000927	0.07	> 6	1600	–	–
C=CC(=O)N1CCC(Nc2cnc3[nH]cc(C(=O)NCCCC(F)(F)F)c3n2)C1 (stereo in doubt) [Example 237, 2-{[(3S)-1-acryloylpyrrolidin-3-yl]amino}-N-(4,4,4-trifluorobutyl)-5H-pyrrolo[2,3-b]pyrazine-7-carboxamide]	0.00025	0.056	4.32	–	780	–
C=CC(=O)N1CCC(Nc2cnc3[nH]cc(C(=O)NCC(C)C)c3n2)C1 (stereo in doubt) [Example 256, 2-{[(3S)-1-acryloylpyrrolidin-3-yl]amino}-N-(2-methylpropyl)-5H-pyrrolo[2,3-b]pyrazine-7-carboxamide]	0.000124	0.023	4.58	–	531	–
C=CC(=O)N1CCC[C@H](Oc2cnc3[nH]cc(C(=O)N[C@@H](C)COC)c3n2)C1 [Example 50, 2-{[(3S)-1-acryloylpiperidin-3-yl]oxy}-N-[(2S)-1-methoxypropan-2-yl]-5H-pyrrolo[2,3-b]pyrazine-7-carboxamide]	0.00109	0.091	> 6	–	431	–
